Measured values from patent US8871460B2, “Gamma-secretase modulatory compounds, methods for identifying same, and uses therefor” (Neurogenetic Pharmaceuticals, Inc., priority 2009, dated 2014).

Assays:
GST-Pen2 = GST-Pen2 (Homo sapiens, UniProt Q9NZ42); experiment: Compound 1-conjugated Affi-Gel resin binding of isolated protein, immunoblot; set-up: purchased Abnova Corp H00055851-PO1; conditions: elute lane, vs unconjugated resin
Procedure: (§1) Prior to assessing binding to Compound 1, the proteins used in the binding assay were characterized. Purified GST (Abnova Corp) and GST-Pen2 (Abnova Corp #H00055851-PO1) proteins were confirmed to react with anti-GST (Novagen #71097-3) and anti-Pen-2 (PNT2) antibodies on an immunoblot. […] To prepare purified Pen-2, about 1 μg of GST-Pen-2 was incubated with 4 μg of PreScission™ protease for 4 hr at 4° C. in Cleavage Buffer (50 mM Tris pH 7.4, 150 mM NaCl, 1 mM EDTA, 1% Triton X-100, 10% glycerol, 1 mg/ml phosphatidylcholine). Free GST and protease were removed by adding glutathione resin (Sigma #G4510) for 1 hr with rotation, and spinning down the resin. The supernatant, containing purified Pen-2, was collected.
(§2) Compound 1-conjugated and unconjugated Affi-Gel 10 resins were prepared essentially as described in Example 1. […]

Pen-2 [1] = experiment: Compound 1-conjugated Affi-Gel resin pull-down from CHO-APPSwe whole-cell lysate, immunoblot; type: binding, Chinese Hamster
Procedure: (§3) Compound 1, which bears a primary amine, was conjugated to Affi-Gel 10 resin (BioRad #153-6046) according to manufacturer's instructions. Compound 1 was dissolved in DMSO to a final concentration of 15 mg/ml. One ml of compound was mixed with approximately 1 ml of resin previously equilibrated in isopropanol. The compound and resin were rotated at room temperature for approximately 3 hr, washed with DMSO and the remaining unreacted groups were blocked with ethanolamine. The efficiency of coupling was generally greater than 80%, as determined by LC-MS analysis, with approximately 10-15 μmol of compound per ml of resin final concentration.
(§4) Solubilized whole-cell lysates from CHO-APPSwe cells (Chinese Hamster Ovary cells expressing human APP^695 with the K670N/M671L “Swedish” mutation) were prepared in PLC buffer (20 mM Hepes pH 7.5, 1 mM EDTA, 150 mM NaCl, 1% Triton X-100, 0.2% Tween-20). Lysates were pre-cleared by incubating with 200 μl of blocked resin at 4° C. for 1 hr. The resin was pelleted and the resulting lysate was centrifuged at 13,000×g for 15 min to pellet any protein precipitates. One mg (approximately 2 mg/ml) of the pre-cleared whole cell lysate was incubated with 100 μl of either Compound 1-conjugated resin, or with unconjugated resin, for two hours at room temperature, with constant rotation. After incubation, the resin was pelleted at low speed and the supernatant (i.e. unbound proteins) collected. The resin was washed 3-5 times with 1 ml of PLC buffer. Bound proteins were eluted with 200-300 μl aliquots of SDS denaturing sample buffer (0.25 M Tris-HCl, pH 6.8; 5% (w/v) SDS; 0.05% bromophenol blue; 10% glycerol; 2.5% 2-mercaptoethanol). Equal volumes of whole cell lysate (WCL) and supernatant in SDS denaturing sample buffer, as well as eluates from each resin, were run in separate lanes on a 4-20% SDS-PAGE gel. The electrophoresed proteins were transferred to a nitrocellulose membrane (Invitrogen #LC2001) and immunoblotted with antibodies that specifically recognize either Pen-2 (PNT2; gift of Gopal Thinakaran, see Luo et al. (2003), J. Biol. Chem. 278:7850-7854), presenilin 1 N-terminal fragment (PS1-NTF; gift of Gopal Thinakaran), presenilin 1 C-terminal fragment (PS1-CTF; Calbiochem #529592), nicastrin (Nct; Sigma #N-1660), amyloid precursor protein (APP; antibody R8666, PCT publication WO 04/018997) or phopholipase C-gamma (PLCγ; Upstate #06-152).

[2] = system: presenilin 1 N-terminal fragment (PS1-NTF); experiment: as above; type: binding, Chinese Hamster; conditions: some present in eluate, not substantially depleted from starting lysate
Procedure: as §3, §4

[3] = system: phopholipase C-gamma (PLCγ); experiment: as above; type: binding, Chinese Hamster
Procedure: as §3, §4

nicastrin (Nct) = experiment: as above; type: binding, Chinese Hamster
Procedure: as §3, §4

[4] = system: presenilin 1 C-terminal fragment (PS1-CTF); experiment: as above; type: binding, Chinese Hamster
Procedure: as §3, §4

[5] = target: T1, APP holoenzyme (APP-Holo) (Homo sapiens, UniProt P05067, K670N/M671L); experiment: as above; type: binding
T1 construct: expressed in transfected cells; host or cells: CHO (Chinese Hamster Ovary)
T1 sequence (P05067 other isoform, or with tags, fused parts or gaps K595N/M596L): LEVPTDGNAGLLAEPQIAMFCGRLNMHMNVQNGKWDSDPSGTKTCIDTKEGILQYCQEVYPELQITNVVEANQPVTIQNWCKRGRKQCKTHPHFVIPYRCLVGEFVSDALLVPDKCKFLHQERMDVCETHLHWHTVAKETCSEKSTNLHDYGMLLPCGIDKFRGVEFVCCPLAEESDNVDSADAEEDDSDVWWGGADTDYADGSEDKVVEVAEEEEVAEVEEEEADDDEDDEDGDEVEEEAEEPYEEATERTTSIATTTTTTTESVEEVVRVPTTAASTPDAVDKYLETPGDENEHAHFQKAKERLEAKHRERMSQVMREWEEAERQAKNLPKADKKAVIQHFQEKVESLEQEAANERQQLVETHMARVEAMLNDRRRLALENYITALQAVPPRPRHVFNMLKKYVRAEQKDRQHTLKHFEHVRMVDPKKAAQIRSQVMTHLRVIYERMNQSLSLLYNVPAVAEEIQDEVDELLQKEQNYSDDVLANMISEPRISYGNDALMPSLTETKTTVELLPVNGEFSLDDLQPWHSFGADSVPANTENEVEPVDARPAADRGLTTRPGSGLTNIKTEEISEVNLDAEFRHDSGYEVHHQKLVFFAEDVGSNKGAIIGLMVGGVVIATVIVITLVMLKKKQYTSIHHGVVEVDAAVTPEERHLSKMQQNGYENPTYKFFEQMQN
Procedure: as §3
Solubilized whole-cell lysates from CHO-APPSwe cells (Chinese Hamster Ovary cells expressing human APP^695 with the K670N/M671L “Swedish” mutation) were prepared in PLC buffer (20 mM Hepes pH 7.5, 1 mM EDTA, 150 mM NaCl, 1% Triton X-100, 0.2% Tween-20). Lysates were pre-cleared by incubating with 200 μl of blocked resin at 4° C. for 1 hr. The resin was pelleted and the resulting lysate was centrifuged at 13,000×g for 15 min to pellet any protein precipitates. One mg (approximately 2 mg/ml) of the pre-cleared whole cell lysate was incubated with 100 μl of either Compound 1-conjugated resin, or with unconjugated resin, for two hours at room temperature, with constant rotation. […]

Purified Pen-2 = target: T2, Purified Pen-2 (Homo sapiens, UniProt Q9NZ42); experiment: Compound 1-conjugated Affi-Gel resin binding of isolated protein, immunoblot; conditions: elute lane, vs unconjugated resin
T2 construct: GST (N, cleaved yes); purchased Abnova Corp H00055851-PO1
T2 sequence (Q9NZ42 whole entry): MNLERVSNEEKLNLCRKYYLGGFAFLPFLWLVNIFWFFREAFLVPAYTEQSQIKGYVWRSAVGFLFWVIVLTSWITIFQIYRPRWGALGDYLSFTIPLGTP
Procedure: as §1, §2

GST = target: T3, GST (Schistosoma japonicum, UniProt P08515); experiment: as above
T3 construct: purchased Abnova Corp
T3 sequence (P08515 whole entry): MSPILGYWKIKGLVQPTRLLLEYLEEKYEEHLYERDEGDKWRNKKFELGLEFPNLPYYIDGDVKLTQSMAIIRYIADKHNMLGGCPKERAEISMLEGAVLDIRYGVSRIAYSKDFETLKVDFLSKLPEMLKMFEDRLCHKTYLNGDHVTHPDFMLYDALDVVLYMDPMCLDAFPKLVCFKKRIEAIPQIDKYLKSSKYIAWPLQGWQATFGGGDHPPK
Procedure: as §1, §2

Pen-2 [6] = target: T4, Pen-2 (Homo sapiens, UniProt Q9NZ42); experiment: Binding of Compound 1 to Pen-2 in lysates prepared from PS1-deficient cells
T4 construct: endogenous in cells; host or cells: PS1-deficient cells (not further described)
T4 sequence (Q9NZ42 whole entry): as the sequence (Q9NZ42 whole entry) above

Chain of GST-Pen2 (Q9NZ42 whole entry): as above

Structure (SMILES): Cc1cn(-c2ccc(-c3csc(Nc4cc(C(C)C)c(OCCN)cc4C)n3)cc2F)cn1 [Compound 1]
- binding of GST-Pen-2 to Compound 1-conjugated resin (GST-Pen2): selectively bind
- depletion of Pen-2 from whole cell lysate applied to the Compound 1-conjugated column (Pen-2 [1]): substantially depleted
- Pen-2 in SDS eluate from resin (Pen-2 [1]; Compound 1-conjugated vs unconjugated Affi-Gel 10 resin, 2 h room temperature): present in the SDS eluate from the Compound 1-conjugated resin, but not from the unconjugated resin
- binding of N-terminal fragment (NTF) of PS1 to Compound 1 [2]: minimal binding
- binding of PLCγ to Compound 1-conjugated resin [3]: did not bind
- binding of Nct to Compound 1-conjugated resin (nicastrin (Nct)): did not bind
- binding of PS1-CTF to Compound 1-conjugated resin [4]: did not bind
- binding of APP-Holo to Compound 1-conjugated resin [5]: did not bind
- binding of purified Pen-2 to Compound 1-conjugated resin (Purified Pen-2): selectively bind
- binding of GST to Compound 1 resin (GST): did not bind
- binding to Pen-2 present in lysates prepared from PS1-deficient cells (Pen-2 [6]): demonstrated binding
